Experimental data taken from PMC4450297, “Screening Active Compounds from Garcinia Species Native to China Reveals Novel Compounds Targeting the STAT/JAK Signaling Pathway” (BioMed Research International, 2015).

Legend:
Test in all cases: Cell panel screen (CellTiter-Glo)
Type in all cases: cell-based, human
BT-474 = settings: Homo sapiens; BT-474 (Breast), 20 micromolar, 72 hrs; read-out: Percent Inhibition
Method in brief: (§1)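 Tested once at 20 μM (final) over 72 h in cells cultured with 10% FBS. Luciferase/ATP luminescence read-out, background-corrected and normalised to vehicle controls.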

BT-549 = settings: Homo sapiens; BT-549 (Breast), 20 micromolar, 72 hrs; read-out: Percent Inhibition
Method in brief: as §1

Bel-7402 = settings: Homo sapiens; Bel-7402 (Liver), 20 micromolar, 72 hrs; read-out: Percent Inhibition
Method in brief: as §1

C3A = settings: Homo sapiens; C3A (Liver), 20 micromolar, 72 hrs; read-out: Percent Inhibition
Method in brief: as §1

C8166 = settings: Homo sapiens; C8166 (Leukemia), 20 micromolar, 72 hrs; read-out: Percent Inhibition
Method in brief: as §1

CCF-STTG1 = settings: Homo sapiens; CCF-STTG1 (Brain), 20 micromolar, 72 hrs; read-out: Percent Inhibition
Method in brief: as §1

ChaGo-K-1 = settings: Homo sapiens; ChaGo-K-1 (Lung), 20 micromolar, 72 hrs; read-out: Percent Inhibition
Method in brief: as §1

Colo 205 = settings: Homo sapiens; Colo 205, 20 micromolar, 72 hrs; read-out: Percent Inhibition
Method in brief: as §1

HCC1569 = settings: Homo sapiens; HCC1569 (Breast), 20 micromolar, 72 hrs; read-out: Percent Inhibition
Method in brief: as §1

HCC1599 = settings: Homo sapiens; HCC1599 (Breast), 20 micromolar, 72 hrs; read-out: Percent Inhibition
Method in brief: as §1

HCC1937 = settings: Homo sapiens; HCC1937 (Breast), 20 micromolar, 72 hrs; read-out: Percent Inhibition
Method in brief: as §1

HEC-1-A = settings: Homo sapiens; HEC-1-A (Uterus), 20 micromolar, 72 hrs; read-out: Percent Inhibition
Method in brief: as §1

HGC-27 = settings: Homo sapiens; HGC-27 (Stomach), 20 micromolar, 72 hrs; read-out: Percent Inhibition
Method in brief: as §1

HPAF-II = settings: Homo sapiens; HPAF-II (Pancreas), 20 micromolar, 72 hrs; read-out: Percent Inhibition
Method in brief: as §1

HT-1197 = settings: Homo sapiens, HT1197; HT-1197 (Urinary bladder), 20 micromolar, 72 hrs; read-out: Percent Inhibition
Method in brief: as §1

M059J = settings: Homo sapiens; M059J (Brain), 20 micromolar, 72 hrs; read-out: Percent Inhibition
Method in brief: as §1

NCI-H1623 = settings: Homo sapiens; NCI-H1623 (Lung), 20 micromolar, 72 hrs; read-out: Percent Inhibition
Method in brief: as §1

NCI-H1694 = settings: Homo sapiens; NCI-H1694 (Lung), 20 micromolar, 72 hrs; read-out: Percent Inhibition
Method in brief: as §1

NCI-H1770 = settings: Homo sapiens; NCI-H1770 (Lung), 20 micromolar, 72 hrs; read-out: Percent Inhibition
Method in brief: as §1

NCI-H2347 = settings: Homo sapiens; NCI-H2347 (Lung), 20 micromolar, 72 hrs; read-out: Percent Inhibition
Method in brief: as §1

NCI-H2405 = settings: Homo sapiens; NCI-H2405 (Lung), 20 micromolar, 72 hrs; read-out: Percent Inhibition
Method in brief: as §1

NCI-H28 = settings: Homo sapiens; NCI-H28 (Lung), 20 micromolar, 72 hrs; read-out: Percent Inhibition
Method in brief: as §1

NCI-H524 = settings: Homo sapiens; NCI-H524 (Lung), 20 micromolar, 72 hrs; read-out: Percent Inhibition
Method in brief: as §1

Panc 03.27 = settings: Homo sapiens, PANC-03-27; Panc 03.27 (Pancreas), 20 micromolar, 72 hrs; read-out: Percent Inhibition
Method in brief: as §1

RL95 = settings: Homo sapiens; RL95 (Uterus), 20 micromolar, 72 hrs; read-out: Percent Inhibition
Method in brief: as §1

T47D = settings: Homo sapiens; T47D (Breast), 20 micromolar, 72 hrs; read-out: Percent Inhibition
Method in brief: as §1

T98G = settings: Homo sapiens; T98G (Brain), 20 micromolar, 72 hrs; read-out: Percent Inhibition
Method in brief: as §1

ZR-75-30 = settings: Homo sapiens; ZR-75-30 (Breast), 20 micromolar, 72 hrs; read-out: Percent Inhibition
Method in brief: as §1

CC(C)=CCC/C(C)=C/Cc1c(O)c(CC=C(C)C)c2c(c1O)C(=O)C1=C[C@@H]3C[C@H]4C(C)(C)O[C@@](C/C=C(\C)C=O)(C3=O)[C@@]14O2 [GB49]
inhibition at 20 µM (BT-474): 99%
inhibition at 20 µM (BT-549): 99%
inhibition at 20 µM (Bel-7402): 98%
inhibition at 20 µM (C3A): 97%
inhibition at 20 µM (C8166): 99%
inhibition at 20 µM (CCF-STTG1): 99%
inhibition at 20 µM (ChaGo-K-1): 99%
inhibition at 20 µM (Colo 205): 100%
inhibition at 20 µM (HCC1569): 99%
inhibition at 20 µM (HCC1599): 99%
inhibition at 20 µM (HCC1937): 99%
inhibition at 20 µM (HEC-1-A): 99%
inhibition at 20 µM (HGC-27): 98%
inhibition at 20 µM (HPAF-II): 98%
inhibition at 20 µM (HT-1197): 96%
inhibition at 20 µM (M059J): 99%
inhibition at 20 µM (NCI-H1623): 99%
inhibition at 20 µM (NCI-H1694): 100%
inhibition at 20 µM (NCI-H1770): 99%
inhibition at 20 µM (NCI-H2347): 98%
inhibition at 20 µM (NCI-H2405): 99%
inhibition at 20 µM (NCI-H28): 97%
inhibition at 20 µM (NCI-H524): 100%
inhibition at 20 µM (Panc 03.27): 98%
inhibition at 20 µM (RL95): 99%
inhibition at 20 µM (T47D): 99%
inhibition at 20 µM (T98G): 99%
inhibition at 20 µM (ZR-75-30): 100%

CC(C)=CCC/C(C)=C/Cc1c(O)c(CC=C(C)C)c2c(c1O)C(=O)C1=C[C@@H]3C[C@H]4C(C)(C)O[C@@](C/C=C(\C)C(=O)O)(C3=O)[C@@]14O2 [GB63]
inhibition at 20 µM (BT-474): 99%
inhibition at 20 µM (BT-549): 99%
inhibition at 20 µM (Bel-7402): 99%
inhibition at 20 µM (C3A): 99%
inhibition at 20 µM (C8166): 100%
inhibition at 20 µM (CCF-STTG1): 99%
inhibition at 20 µM (ChaGo-K-1): 100%
inhibition at 20 µM (Colo 205): 99%
inhibition at 20 µM (HCC1569): 99%
inhibition at 20 µM (HCC1599): 99%
inhibition at 20 µM (HCC1937): 100%
inhibition at 20 µM (HEC-1-A): 99%
inhibition at 20 µM (HGC-27): 99%
inhibition at 20 µM (HPAF-II): 99%
inhibition at 20 µM (HT-1197): 99%
inhibition at 20 µM (M059J): 99%
inhibition at 20 µM (NCI-H1623): 99%
inhibition at 20 µM (NCI-H1694): 100%
inhibition at 20 µM (NCI-H1770): 99%
inhibition at 20 µM (NCI-H2347): 98%
inhibition at 20 µM (NCI-H2405): 99%
inhibition at 20 µM (NCI-H28): 99%
inhibition at 20 µM (NCI-H524): 98%
inhibition at 20 µM (Panc 03.27): 99%
inhibition at 20 µM (RL95): 99%
inhibition at 20 µM (T47D): 99%
inhibition at 20 µM (T98G): 99%
inhibition at 20 µM (ZR-75-30): 99%

CC(C)=CCC[C@@]1(C)C=Cc2c(O)c3c(c(C/C=C(\C)CO)c2O1)O[C@]12C(=C[C@@H]4C[C@H]1C(C)(C)O[C@@]2(C/C=C(/C)C(=O)O)C4=O)C3=O [GB40, 35-hydroxyepigambogic acid]
inhibition at 20 µM (BT-474): 99%
inhibition at 20 µM (BT-549): 99%
inhibition at 20 µM (Bel-7402): 99%
inhibition at 20 µM (C3A): 98%
inhibition at 20 µM (C8166): 99%
inhibition at 20 µM (CCF-STTG1): 99%
inhibition at 20 µM (ChaGo-K-1): 98%
inhibition at 20 µM (Colo 205): 99%
inhibition at 20 µM (HCC1569): 99%
inhibition at 20 µM (HCC1599): 99%
inhibition at 20 µM (HCC1937): 99%
inhibition at 20 µM (HEC-1-A): 99%
inhibition at 20 µM (HGC-27): 99%
inhibition at 20 µM (HPAF-II): 99%
inhibition at 20 µM (HT-1197): 99%
inhibition at 20 µM (M059J): 99%
inhibition at 20 µM (NCI-H1623): 99%
inhibition at 20 µM (NCI-H1694): 99%
inhibition at 20 µM (NCI-H1770): 99%
inhibition at 20 µM (NCI-H2347): 98%
inhibition at 20 µM (NCI-H2405): 99%
inhibition at 20 µM (NCI-H28): 98%
inhibition at 20 µM (NCI-H524): 99%
inhibition at 20 µM (Panc 03.27): 99%
inhibition at 20 µM (RL95): 99%
inhibition at 20 µM (T47D): 99%
inhibition at 20 µM (T98G): 99%
inhibition at 20 µM (ZR-75-30): 99%
